According to US20040086883A1, “Method and device for characterising and/or for detecting a bonding complex” (priority 2000, published 2004):
{Cy3} = Cy3 fluorescent dye label

B1: 5′ACTCTCTGCTGAAAGTCCCTTTGATAATCGTAACGAGGGGTTATACGCCGTAAAGCCGGAGA-Cy3 (nucleic acid)
chain: ACTCTCTGCTGAAAGTCCCTTTGATAATCGTAACGAGGGGTTATACGCCGTAAAGCCGGAGA
modifications: DNA, 3' {Cy3}, backbone not given here

Columns and labels:
[1] = tested on: DNA-duplexes with oligo1 and oligo3; experiment: Differential force test comparing two DNA-duplexes (oligo2 with oligo1 versus oligo2 with oligo3); format: binding; conditions: for Q St = ΔCy3St/ΔCy5St: enrichment of Cy3-oligo2 relative to Cy5-oligo3; for Q Unt = ΔCy3Unt/ΔCy5Unt: depletion of Cy3-oligo2 relative to Cy5-oligo3
streptavidin [2] = target: T1, streptavidin (Streptomyces avidinii, UniProt P22629); experiment: Differential force test comparing biotin/streptavidin and iminobiotin/streptavidin complexes (pillar pressing); format: binding; conditions: for proportion of streptavidin transferred from the hapten on the substrate to the biotin-coated pillar: pH 10 buffer, 30 minutes contact, Alexa-Fluor-546 marked streptavidin
T1 construct: purchased Molecular Probes, Eugene
Text: Biotin and iminobiotin are bound to a substrate. Fluorescence-marked streptavidin is bound to the immobilized haptens. A plunger or pillar which is coated with biotin is moved towards the substrate in such a way that the biotin which is bound to the pillar can bind the streptavidin coupled by way of the haptens to the substrate. The pillar is then removed again. To conclude, the procedure involves determining which proportion of the streptavidin was transferred from the iminobiotin of the substrate onto the biotin of the pillar and which proportion of the streptavidin was transferred from the biotin of the substrate onto the biotin of the pillar.
20 μl of a solution with 2 mg/100 μl of NHS-PEG-biotin (Shearwater, Huntsville) was incubated under a cover glass for 1 hour on a pillar with an area of 1 cm^2. It was washed with very pure water and blown dry with nitrogen.
A glass object carrier was cleaned by a 100-minute treatment with saturated KOH-ethanol solution. The cleaned surface was incubated with 3% aminosilane (3-aminopropyldimethyl-ethoxysilane; ABCR, Karlsruhe) in 10% H2O and 87% Ethanol for 30 minutes. The silanised surface was washed with very pure water and blown dry with nitrogen. […] The tBoc protective group was then split off with trifluoro-acetic acid. NHS-biotin and NHS-iminobiotin (Sigma, St. Louis) were respectively diluted starting from a 50 mM stock solution in DMSO to give a final concentration of 5 mM with PBS (phosphate buffered saline, Sigma). The attachment of biotin or iminobiotin respectively to the amino-functionalized glass substrate was effected from that solution. That was incubated for one hour in a saturated water atmosphere, washed with very pure water and blown dry with nitrogen.
For the purposes of binding the streptavidin AlexaFluor ? -546 conjugate (Molecular Probes, Eugene), a solution was produced, involving a concentration of 0.1 mg/ml in a glycine/NaOH-buffer (pH 10). The substrate was incubated for 20 minutes with the solution, then washed for 5 minutes in that buffer and blown dry with nitrogen. […]

avidin = avidin (Gallus gallus, UniProt P02701); conditions: AFM force spectrometer, Florin et al. Science 1994; cited from earlier work
streptavidin [3] = target: T1, streptavidin; experiment: Force test with reverse pillar pressing, biotin/streptavidin versus desthiobiotin/streptavidin; format: binding
Experimental: The polymerized structured and unstructured PDMS plates were cut to a size of 1 cm^2. Then the pieces were exposed to an H2O plasma in a plasma furnace at 2 mbar for 30 s. The oxidized surface was incubated with a solution of 2% aldehyde silane (4-triethoxysilylbutanal, Amchro, Hattersheim, Germany) in 10% H2O and 88% ethanol for 30 minutes. The silanised surface was washed with ethanol and very pure water and blown dry with nitrogen.
The functionalized substrates and pillars were incubated overnight in PBS (phosphate buffered saline; Sigma, St. Louis, USA) with 2% BSA (bovine serum albumin; Roth, Karlsruhe, Germany). In that case BSA binds with its amino groups to the aldehyde groups of the surface. For stabilization purposes the resulting Schiff's bases were reduced with 1% sodium borohydride for 15 minutes. […]
Depending on the respective pillar composition a fluorescence-marked streptavidin-AlexaFluor ? -647 conjugate (Molecular Probes, Eugene) was bound to the substrate or the pillar. […]
The reverse implementation permits evaluation which is independent of the coupling efficiency. […] That assumption is permissible here by virtue of the very similar properties of the binding partners BP1 and BP4 to be compared (for example size) and can also be checked by measurement of fluorescence intensity prior to the pillar pressing procedure. […]

T1 sequence (P22629 25-183): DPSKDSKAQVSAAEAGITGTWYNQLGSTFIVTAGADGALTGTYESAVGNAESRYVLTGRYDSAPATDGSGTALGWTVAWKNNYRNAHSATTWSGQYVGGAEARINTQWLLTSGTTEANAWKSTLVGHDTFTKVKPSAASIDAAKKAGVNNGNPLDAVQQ
avidin, sequence (P02701 25-152, species assumed): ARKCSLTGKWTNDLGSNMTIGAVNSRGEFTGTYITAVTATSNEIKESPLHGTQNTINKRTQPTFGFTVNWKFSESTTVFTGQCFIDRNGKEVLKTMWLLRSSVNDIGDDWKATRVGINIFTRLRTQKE

Row | Molecule | Q St = ΔCy3St/ΔCy5St ([1]; pillar) | Q Unt = ΔCy3Unt/ΔCy5Unt ([1]; substrate) | proportion of streptavidin transferred from the hapten on the substrate to the biotin-coated pillar (streptavidin [2]) [%] | unbinding force of the receptor-ligand pair (avidin) [pN] | further results
1 | 5′TTGCTCCCAGACTCTCTGCTGAAAGTCCCTTTGATAATCGTAACGAGGGGTTATACGCCGTAAAGCCCGGAGA-Cy3 [oligo2a] | 1.20 ± 0.08 | 0.69±0.09 | – | – | unbinding force of the duplex with oligo3, higher than the duplex between oligo 2b and oligo3 ([1]; from QSt and QUnt): at least 500%; QSt = QA St/QB St ([1]; pillar, Experiment 2a relative to reference experiment 2b): 1.97; QA St corr. ([1]; pillar, corrected by factor 0.82): 0.98; QUnt = QA Unt/QB Unt ([1]; substrate, Experiment 2a relative to reference experiment 2b): 1.92; QA Unt corr. ([1]; substrate, corrected by factor 1.39): 0.96
2 | O=C(O)CCCC[C@@H]1SC[C@@H]2NC(=O)N[C@@H]21 [biotin] | – | – | 15 | 160 | relative strength of the streptavidin-hapten bond (streptavidin [2]; biotin versus iminobiotin, assuming identical coupling efficiency and equal density): stronger
3 | N=C1N[C@H]2[C@H](CS[C@H]2CCCCC(=O)O)N1 [iminobiotin] | – | – | 30 | 85±15 | –
4 | C[C@@H]1NC(=O)N[C@@H]1CCCCCC(=O)O [desthiobiotin] | – | – | – | – | quotient of the transfer to desthiobiotin and the transfer to biotin (streptavidin [3]; average of both tests): 0.18; binding force to streptavidin relative to biotin (streptavidin [3]; reverse pillar pressing): weaker
5 | B1 | 0.61 ± 0.08 | 0.36±0.08 | – | – | –
